Measurements taken from patent US20260285850A1, “SUBSTITUTED OXAZOLIDINONES AND IMIDAZOLINONES AS HERBICIDES” (FMC CORPORATION, priority 2023, published 2026).

Columns and labels:
Assay type in all cases: in vivo
[1] = test system: wheat (Triticum aestivum); assay: Test A postemergence application, visual injury rating 0-100; conditions: 10 days
Source text: (§1) Seeds of plant species selected from barnyardgrass (Echinochloa crus-galli), blackgrass (Alopecurus myosuroides), corn (Zea mays), foxtail, giant (giant foxtail, Setaria faberi), green foxtail (Setaria viridis), goosegrass (Eleusine indica), kochia (Bassia scoparia), oat, wild (wild oat, Avena fatua), palmer (palmer amaranth, palmer pigweed, Amaranthus palmeri), ragweed (common ragweed, Ambrosia artemisiifolia), ryegrass, Italian (italian ryegrass, Lolium multiflorum), soybean (Glycine max) and wheat (Triticum aestivum) were planted into a blend of loam soil and sand and treated preemergence with a directed soil spray using test chemicals formulated in a non-phytotoxic solvent mixture which included a surfactant.
(§2) At the same time, plants selected from these crops and weed species and also galium (catchweed bedstraw, Galium aparine) and horseweed (Erigeron canadensis) were planted in pots containing the same blend of loam soil and sand and treated with postemergence applications of test chemicals formulated in the same manner. Plants ranged in height from 2 to 10 cm and were in the one- to two-leaf stage for the postemergence treatment. Treated plants and untreated controls were maintained in a greenhouse for 10 days, after which time all treated plants were compared to untreated controls and visually evaluated for injury. Plant response ratings, summarized in Table A, are based on a 0 to 100 scale where 0 is no effect and 100 is complete control. A dash (-) response means no test result.

[2] = test system: barnyardgrass (Echinochloa crus-galli); assay: as above; conditions: 10 days
Source text: as §1, §2

[3] = test system: oat, wild (wild oat, Avena fatua); assay: as above; conditions: 10 days
Source text: as §1, §2

[4] = test system: ryegrass, Italian (italian ryegrass, Lolium multiflorum); assay: as above; conditions: 10 days
Source text: as §1, §2

kochia (Bassia scoparia) [5] = assay: as above; conditions: 10 days
Source text: as §1, §2

[6] = test system: ragweed (common ragweed, Ambrosia artemisiifolia); assay: as above; conditions: 10 days
Source text: as §1, §2

[7] = test system: blackgrass (Alopecurus myosuroides); assay: as above; conditions: 10 days
Source text: as §1, §2

corn (Zea mays) [8] = assay: as above; conditions: 10 days
Source text: as §1, §2

[9] = test system: green foxtail (Setaria viridis); assay: as above; conditions: 10 days
Source text: as §1, §2

[10] = test system: palmer (palmer amaranth, palmer pigweed, Amaranthus palmeri); assay: as above; conditions: 10 days
Source text: as §1, §2

soybean (Glycine max) [11] = assay: as above; conditions: 10 days
Source text: as §1, §2

[12] = test system: horseweed (Erigeron canadensis); assay: as above; conditions: 10 days
Source text: as §1, §2

[13] = test system: wheat (Triticum aestivum); assay: Test A preemergence soil spray, visual injury rating 0-100; conditions: 10 days, 0 = no effect, 100 = complete control
Source text: as §1, §2

[14] = test system: barnyardgrass (Echinochloa crus-galli); assay: as above; conditions: 10 days, 0 = no effect, 100 = complete control
Source text: as §1, §2

[15] = test system: oat, wild (wild oat, Avena fatua); assay: as above; conditions: 10 days, 0 = no effect, 100 = complete control
Source text: as §1, §2

[16] = test system: ryegrass, Italian (italian ryegrass, Lolium multiflorum); assay: as above; conditions: 10 days, 0 = no effect, 100 = complete control
Source text: as §1, §2

kochia (Bassia scoparia) [17] = assay: as above; conditions: 10 days, 0 = no effect, 100 = complete control
Source text: as §1, §2

[18] = test system: ragweed (common ragweed, Ambrosia artemisiifolia); assay: as above; conditions: 10 days, 0 = no effect, 100 = complete control
Source text: as §1, §2

[19] = test system: blackgrass (Alopecurus myosuroides); assay: as above; conditions: 10 days, 0 = no effect, 100 = complete control
Source text: as §1, §2

corn (Zea mays) [20] = assay: as above; conditions: 10 days, 0 = no effect, 100 = complete control
Source text: as §1, §2

[21] = test system: green foxtail (Setaria viridis); assay: as above; conditions: 10 days, 0 = no effect, 100 = complete control
Source text: as §1, §2

[22] = test system: palmer (palmer amaranth, palmer pigweed, Amaranthus palmeri); assay: as above; conditions: 10 days, 0 = no effect, 100 = complete control
Source text: as §1, §2

soybean (Glycine max) [23] = assay: as above; conditions: 10 days, 0 = no effect, 100 = complete control
Source text: as §1, §2

[24] = 31 g ai/ha, postemergence, 0 = no effect, 100 = complete control
[25] = Postemergence, 125 g ai/ha, 0 is no effect, 100 is complete control

CONC(=O)C1CC(NC(=O)C2(C)CN(c3cc(F)cc(F)c3)C(=O)O2)CO1 (stereo not shown) [Compound 41]
Wheat plant response rating (0-100) [1, 24]: 20 | Wheat plant response rating (0 to 100 scale) [1, 25]: 80 | Barnyardgrass plant response rating (0-100) [2, 24]: 0 | Barnyardgrass plant response rating (0 to 100 scale) [2, 25]: 30 | Oat, Wild plant response rating (0-100) [3, 24]: 10 | Oat, Wild plant response rating (0 to 100 scale) [3, 25]: 40 | Ryegrass, Italian plant response rating (0-100) [4, 24]: 0 | Ryegrass, Italian plant response rating (0 to 100 scale) [4, 25]: 50 | Kochia plant response rating (0-100) (kochia (Bassia scoparia) [5]; [24]): 0 | Kochia plant response rating (0 to 100 scale) (kochia (Bassia scoparia) [5]; [25]): 0 | Ragweed plant response rating (0-100) [6, 24]: 0 | Ragweed plant response rating (0 to 100 scale) [6, 25]: 0 | Blackgrass plant response rating (0-100) [7, 24]: 0 | Blackgrass plant response rating (0 to 100 scale) [7, 25]: 90 | Corn plant response rating (0-100) (corn (Zea mays) [8]; [24]): 0 | Corn plant response rating (0 to 100 scale) (corn (Zea mays) [8]; [25]): 0 | Foxtail, Green plant response rating (0-100) [9, 24]: 20 | Foxtail, Green plant response rating (0 to 100 scale) [9, 25]: 30 | Amaranth, Palmer plant response rating (0-100) [10, 24]: 0 | Amaranth, Palmer / Pigweed, Palmer plant response rating (0 to 100 scale) [10, 25]: 0 | Soybean plant response rating (0-100) (soybean (Glycine max) [11]; [24]): 0 | Soybean plant response rating (0 to 100 scale) (soybean (Glycine max) [11]; [25]): 0 | Horseweed plant response rating (0-100) [12, 24]: 0 | Horseweed plant response rating (0 to 100 scale) [12, 25]: 0 | Wheat plant response rating (0-100) ([13]; 31 g ai/ha): 0 | Wheat plant response rating (0 to 100 scale) ([13]; 125 g ai/ha): 0 | Barnyardgrass plant response rating (0-100) ([14]; 31 g ai/ha): 0 | Barnyardgrass plant response rating (0 to 100 scale) ([14]; 125 g ai/ha): 0 | Oat, Wild plant response rating (0-100) ([15]; 31 g ai/ha): 0 | Oat, Wild plant response rating (0 to 100 scale) ([15]; 125 g ai/ha): 0 | Ryegrass, Italian plant response rating (0-100) ([16]; 31 g ai/ha): 0 | Ryegrass, Italian plant response rating (0 to 100 scale) ([16]; 125 g ai/ha): 0 | Kochia plant response rating (0-100) (kochia (Bassia scoparia) [17]; 31 g ai/ha): 0 | Kochia plant response rating (0 to 100 scale) (kochia (Bassia scoparia) [17]; 125 g ai/ha): 0 | Ragweed plant response rating (0-100) ([18]; 31 g ai/ha): 0 | Ragweed plant response rating (0 to 100 scale) ([18]; 125 g ai/ha): 0 | Blackgrass plant response rating (0-100) ([19]; 31 g ai/ha): 0 | Blackgrass plant response rating (0 to 100 scale) ([19]; 125 g ai/ha): 0 | Corn plant response rating (0-100) (corn (Zea mays) [20]; 31 g ai/ha): 0 | Corn plant response rating (0 to 100 scale) (corn (Zea mays) [20]; 125 g ai/ha): 0 | Foxtail, Green plant response rating (0-100) ([21]; 31 g ai/ha): 0 | Foxtail, Green plant response rating (0 to 100 scale) ([21]; 125 g ai/ha): 0 | Amaranth, Palmer plant response rating (0-100) ([22]; 31 g ai/ha): 0 | Amaranth, Palmer plant response rating (0 to 100 scale) ([22]; 125 g ai/ha): 0 | Soybean plant response rating (0-100) (soybean (Glycine max) [23]; 31 g ai/ha): 0 | Soybean plant response rating (0 to 100 scale) (soybean (Glycine max) [23]; 125 g ai/ha): 0
